Assay results published in patent US20250074939A1, “SEA URCHIN-DERIVED PEPTIDE AND USE THEREOF” (NATIONAL MARINE BIODIVERSITY INSTITUTE OF KOREA, priority 2021, published 2025).
pEC50, pIC50: −log10 of the molar value. Where a SMILES comes first, the peptide text is derived from it. Bridges are numbered along the chain shown (N, C = ends).

How the values were obtained:
[1] = molecular target: T1, recombinant human vasopressin V1A receptor (Homo sapiens, UniProt P37288); test: cell-based
[2] = system: tube foot and esophageal tissues isolated from Echinus esculentus; details: cited from earlier work
[3] = molecular target: T2, recombinant human vasopressin V1B receptor (Homo sapiens, UniProt P47901); test: cell-based
[4] = molecular target: T3, recombinant human oxytocin receptor (Homo sapiens, UniProt P30559); test: cell-based
[5] = molecular target: T2, recombinant human vasopressin V1B receptor
[6] = molecular target: T4, recombinant human vasopressin V2 receptor (Homo sapiens, UniProt P30518); test: cell-based
[7] = molecular target: T1, recombinant human vasopressin V1A receptor; test: cell-based or functional assay
[8] = molecular target: T4, recombinant human vasopressin V2 receptor; test: cell-based or functional assay
[9] = molecular target: T5, recombinant human vasopressin V1B receptor (human) (UniProt P47901); test: cell-based or functional assay
T5 sequence (looked up): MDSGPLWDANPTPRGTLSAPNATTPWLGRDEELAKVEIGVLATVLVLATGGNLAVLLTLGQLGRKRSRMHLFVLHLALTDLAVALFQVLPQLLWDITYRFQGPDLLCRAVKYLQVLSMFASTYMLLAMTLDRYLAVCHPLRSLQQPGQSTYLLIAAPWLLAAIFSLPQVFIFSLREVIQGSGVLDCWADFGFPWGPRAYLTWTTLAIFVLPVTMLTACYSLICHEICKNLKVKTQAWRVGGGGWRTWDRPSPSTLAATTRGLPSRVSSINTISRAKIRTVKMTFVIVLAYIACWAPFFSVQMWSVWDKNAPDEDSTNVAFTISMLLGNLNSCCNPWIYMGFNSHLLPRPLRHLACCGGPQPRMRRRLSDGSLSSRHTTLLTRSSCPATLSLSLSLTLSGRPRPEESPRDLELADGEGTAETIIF

[10] = molecular target: T3, recombinant human oxytocin receptor; test: cell-based or functional assay

T1 sequence (P37288 whole entry): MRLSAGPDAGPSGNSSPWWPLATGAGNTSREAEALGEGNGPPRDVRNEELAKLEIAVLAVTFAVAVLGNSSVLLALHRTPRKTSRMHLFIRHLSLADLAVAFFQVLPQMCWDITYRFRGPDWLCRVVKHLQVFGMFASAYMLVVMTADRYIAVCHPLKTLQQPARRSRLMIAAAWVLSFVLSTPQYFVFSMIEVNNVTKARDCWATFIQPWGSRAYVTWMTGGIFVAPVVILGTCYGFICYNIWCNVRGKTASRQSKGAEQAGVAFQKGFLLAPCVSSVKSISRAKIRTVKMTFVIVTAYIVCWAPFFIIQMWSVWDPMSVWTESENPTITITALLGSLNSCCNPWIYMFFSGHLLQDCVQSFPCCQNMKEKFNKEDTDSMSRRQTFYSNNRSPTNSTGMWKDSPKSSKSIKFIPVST
T3 sequence (P30559 whole entry): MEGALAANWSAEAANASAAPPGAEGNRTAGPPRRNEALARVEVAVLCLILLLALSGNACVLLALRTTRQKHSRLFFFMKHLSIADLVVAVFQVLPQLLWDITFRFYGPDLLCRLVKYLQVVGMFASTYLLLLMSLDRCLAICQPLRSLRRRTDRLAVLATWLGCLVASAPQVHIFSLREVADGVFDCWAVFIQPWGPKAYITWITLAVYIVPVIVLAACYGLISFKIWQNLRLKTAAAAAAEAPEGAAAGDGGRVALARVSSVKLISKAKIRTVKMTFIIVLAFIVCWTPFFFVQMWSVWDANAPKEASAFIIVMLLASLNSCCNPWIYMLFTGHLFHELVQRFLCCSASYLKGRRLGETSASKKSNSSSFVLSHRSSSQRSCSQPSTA

receptor inhibition: intracellular calcium response to 10 nM vasopressin (calcium dye fluorescence imaging) [7] [µM]	receptor activation: intracellular cAMP accumulation (HTRF), relative to 1 nM vasopressin [8] [nM]	receptor activation: increase of intracellular calcium concentration (calcium dye fluorescence imaging), relative to 0.1 µM vasopressin [9] [nM]	receptor inhibition: intracellular calcium response to 30 nM oxytocin (calcium dye fluorescence imaging) [10] [UM]	Compound	pIC50 [1]	contraction of isolated tube foot and esophageal tissues [2]	pEC50 [3]	pIC50 [4]	receptor selectivity at appropriate concentration [5]	pEC50 [6]
–	–	–	–	CC[C@H](C)[C@@H]1NC(=O)[C@H](Cc2ccccc2)NC(=O)[C@@H](N)CSSC[C@@H](C(=O)N2CCC[C@H]2C(=O)N[C@@H](CCCCN)C(=O)NCC(N)=O)NC(=O)[C@H](CC(N)=O)NC(=O)[C@H](CO)NC1=O [Echinotocin] (H-CFISNCPKG-NH2; disulfide 1-6; N-terminus assumed)	6.00	effective in contracting tube foot and esophageal tissues	7.31	5.77	selectively activates only the V1B receptor and has little effect on other receptors	8.43
1	3.68	49.1	1.7	Echinotocin (Strongylocentrotus purpuratus-derived peptide, SEQ ID NO: 1)	–	–	–	–	–	–
